Measured values as given in US10669268B2, “Bicyclic derivatives” (Hoffmann-La Roche Inc., priority 2012, dated 2020).

Target: ATX (human His-tagged) (Homo sapiens (Human), UniProt Q13822)
Experiment: Human ATX enzyme inhibition assay (fluorescence quenching, MR121 substrate)
Format: biochemical
Settings: 30 nM ATX, 1 μM MR121 substrate, 30° C., pH 8.0
In short: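 Tris-HCl buffer at pH 8.0 contained 140 mM NaCl, 5 mM KCl, 1 mM each CaCl2 and MgCl2, and 0.01% Triton X-100. The MR121 substrate (1 μM final) was incubated with enzyme for 15 min at 30 °C, and activity was read by fluorescence quenching.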

SMILES | IC50
O=C(/C=C/c1ccc(-c2ccccc2)cn1)N1C[C@@H]2CN(C(=O)c3ccc4[nH]nnc4c3)C[C@H]2C1 [Example 15.84, (E)-1-[(3aR,6aR)-5-(1H-benzotriazole-5-carbonyl)-hexahydro-pyrrolo[3,4-c]pyrrol-2-yl]-3-(5-phenyl-pyridin-2-yl)-prop-2-en-1-one] | 12 nM
O=C(/C=C/c1ccc(OC(F)(F)F)cc1)N1CC[C@@H]2CN(C(=O)NCc3cnn[nH]3)C[C@@H]2CC1 [Example 9.01] | 38 nM
CC(C)c1cc2c(cc1OCC(=O)N1CC[C@@H]3CN(C(=O)c4ccc5[nH]nnc5c4)C[C@@H]3CC1)C(C)(C)CC2 [Example 1.39, 1-((3aR,8aS)-2-(1H-benzo[d][1,2,3]triazole-5-carbonyl)octahydropyrrolo[3,4-d]azepin-6(7H)-yl)-2-(6-isopropyl-3,3-dimethyl-2,3-dihydro-1H-inden-5-yloxy)ethanone] | 7 nM
O=C(/C=C/c1ccc(Cl)c(Cl)c1)N1CC[C@@H]2CN(C(=O)c3ccc4[nH]nnc4c3)C[C@@H]2CC1 [Example 15.31] | 38 nM
CN(Cc1cnn[nH]1)C(=O)N1C[C@H]2CCN(C(=O)CCc3ccc(OC(F)(F)F)c(F)c3)CC[C@H]2C1 [Example 17.02, (3aR,8aS)-N-((1H-1,2,3-triazol-5-yl)methyl)-6-(3-(3-fluoro-4-(trifluoromethoxy)phenyl)-propanoyl)-N-methyloctahydropyrrolo[3,4-d]azepine-2(1H)-carboxamide] | 101 nM
O=C(c1cnc(OCC2CC2)c(Br)c1)N1C[C@@H]2CN(C(=O)c3ccc4[nH]nnc4c3)C[C@H]2C1 [Example 19.41, ((3aS,6aS)-5-(1H-benzo[d][1,2,3]triazole-5-carbonyl)hexahydropyrrolo[3,4-c]pyrrol-2(1H)-yl)(5-bromo-6-(cyclopropylmethoxy)pyridin-3-yl)methanone] | 685 nM
O=C(c1ccc2ccccc2c1)N1C[C@@H]2CN(C(=O)c3ccc4[nH]nnc4c3)C[C@H]2C1 [Example 19.06, (1H-benzotriazol-5-yl)-[(3aR,6aR)-5-(naphthalene-2-carbonyl)-hexahydro-pyrrolo[3,4-c]pyrrol-2-yl]-methanone] | 250 nM
N#Cc1cc(F)cc(COC(=O)N2C[C@@H]3CN(C(=O)c4ccc5[nH]nnc5c4)C[C@@H]3C2)c1 [Example 4.29, (3aR,6aS)-3-cyano-5-fluorobenzyl 5-(1H-benzo[d][1,2,3]triazole-5-carbonyl)hexahydropyrrolo[3,4-c]pyrrole-2(1H)-carboxylate] | 643 nM
O=C(CCc1ccc(OC(F)(F)F)c(F)c1)N1C[C@@H]2CN(C(=O)c3ccc4[nH]nnc4c3)C[C@H]2C1 [Example 19.09, 1-[(3aR,6aR)-5-(1H-benzotriazole-5-carbonyl)-hexahydro-pyrrolo[3,4-c]pyrrol-2-yl]-3-(3-fluoro-4-trifluoromethoxy-phenyl)-propan-1-one] | 10 nM
O=C(OCc1cc(Cl)cc(Cl)c1)N1CC[C@H]2CN(C(=O)c3ccc4[nH]nnc4c3)C[C@H]2C1 [Example 10B, (3aS,7aR)-2-(1H-benzotriazole-5-carbonyl)-octahydro-pyrrolo[3,4-c]pyridine-5-carboxylic acid 3,5-dichloro-benzyl ester] | 118 nM
CC(C)(C)c1cc(Br)ccc1OCC(=O)N1C[C@@H]2CN(C(=O)[C@@H]3CCc4[nH]nnc4C3)C[C@H]2C1 [Example 19.29, 1-[(3aS,6aS)-5-[(5R)-4,5,6,7-tetrahydro-1H-benzotriazole-5-carbonyl]-1,3,3a,4,6,6a-hexahydropyrrolo[3,4-c]pyrrol-2-yl]-2-(4-bromo-2-tert-butylphenoxy)ethanone] | 1 nM
CN(C)S(=O)(=O)c1ccc(/C=C/C(=O)N2CC[C@@H]3CN(C(=O)c4ccc5[nH]nnc5c4)C[C@@H]3CC2)cc1 [Example 15.08] | 977 nM
O=C(OCc1ccc(OC(F)(F)F)cc1)N1C[C@@H]2CN(C(=O)c3cc4nn[nH]c4cn3)C[C@H]2C1 [Example 1.51, (3aS,6aS)-5-(3H-[1,2,3]triazolo[4,5-c]pyridine-6-carbonyl)-hexahydro-pyrrolo[3,4-c]pyrrole-2-carboxylic acid 4-trifluoromethoxy-benzyl ester] | 41 nM

The next lines start with the values.

IC50 | SMILES
7 nM | O=C(/C=C/c1ccc(OC(F)(F)F)cc1)N1CC[C@@H]2CN(C(=O)c3ccc4[nH]nnc4c3)C[C@@H]2CC1 [Example 15.70]
4 nM | O=C(CCc1ccc(OC(F)(F)F)c(F)c1)N1CC[C@@H]2CN(C(=O)c3ccc4[nH]nnc4c3)C[C@@H]2CC1 [Example 17, 1-((3aR,8aS)-2-(1H-Benzo[d][1,2,3]triazole-5-carbonyl)octahydropyrrolo[3,4-d]azepin-6(7H)-yl)-3-(3-fluoro-4-(trifluoromethoxy)phenyl)propan-1-one]
248 nM | O=C(OCc1cc(Cl)cc(Cl)c1)N1C[C@H]2C[C@@H](Nc3ccc4[nH]c(=O)oc4c3)C[C@H]2C1 [Example 5, (3aR,5r,6aS)-3,5-Dichlorobenzyl 5-(2-oxo-2,3-dihydrobenzo[d]oxazol-6-ylamino)hexahydrocyclopenta[c]pyrrole-2(1H)-carboxylate]
1710 nM | CC(=O)c1ccccc1OCC(=O)N1C[C@@H]2CN(C(=O)c3ccc4[nH]nnc4c3)C[C@H]2C1 [Example 19.04, 2-(2-acetyl-phenoxy)-1-[(3aS,6aS)-5-(1H-benzotriazole-5-carbonyl)-hexahydro-pyrrolo[3,4-c]pyrrol-2-yl]-ethanone]
655 nM | O=C(/C=C/c1ccccc1)N1C[C@@H]2CN(C(=O)c3ccc4[nH]nnc4c3)C[C@H]2C1 [Example 15.56]
8 nM | CC(C)c1cc(C#N)ccc1OCC(=O)N1C[C@@H]2CN(C(=O)c3ccc4[nH]nnc4c3)C[C@H]2C1 [Example 19.03, 4-{2-[(3aS,6aS)-5-(1H-benzotriazole-5-carbonyl)-hexahydro-pyrrolo[3,4-c]pyrrol-2-yl]-2-oxo-ethoxy}-3-isopropyl-benzonitrile]
5790 nM | O=C(/C=C/c1ccccn1)N1CC[C@@H]2CN(C(=O)c3ccc4[nH]nnc4c3)C[C@@H]2CC1 [Example 15.16]
46 nM | CS(=O)(=O)c1cc(Cl)cc(COC(=O)N2C[C@@H]3CN(C(=O)c4ccc5[nH]nnc5c4)C[C@@H]3C2)c1 [Example 4.04, (3aS,6aR)-5-(1H-benzotriazole-5-carbonyl)-hexahydro-pyrrolo[3,4-c]pyrrole-2-carboxylic acid 3-chloro-5-methanesulfonyl-benzyl ester]
